Data as given in PubChem BioAssay AID1918991 (Molecular Pharmacology Branch, DTP, NCI, 2023).
pIC50: −log10 of the molar value. Several values for one entry are separate records, joined by “and”; a condition that tells them apart may be missing. Equal values may be shown once.

Test system: 186277-243-T-J2-PDC complex spheroid growth
Assay: Anticancer human tumor 186277-243-T-J2-PDC patient-derived colon adenocarcinoma cell line growth inhibition [AhR]
Details: for viability, T/C: stronger effect = lower value
Summary of the method: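 Agents were dosed in half-log steps down from roughly clinical Cmax, or from 10 microM where Cmax was unknown, alone and with AhR antagonists. Read-out: percent test/control growth of tumor spheroids containing HUVEC and MSC stromal cells.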

[1] = curve of first compound, second compound 0.1 µM
[2] = curve of first compound, second compound 0.316 µM
[3] = curve of first compound, second compound 1 µM
[4] = curve of first compound, second compound 3.16 µM
[5] = curve of first compound, second compound 10 µM
[6] = second compound 0.1 µM, first compound 0.000949 µM
[7] = second compound 0.1 µM, first compound 0.003 µM
[8] = second compound 0.1 µM, first compound 0.00949 µM
[9] = second compound 0.1 µM, first compound 0.03 µM
[10] = second compound 0.1 µM, first compound 0.0949 µM
[11] = second compound 0.1 µM, first compound 0.3 µM
[12] = second compound 0.316 µM, first compound 0.000949 µM
[13] = second compound 0.316 µM, first compound 0.003 µM
[14] = second compound 0.316 µM, first compound 0.00949 µM
[15] = second compound 0.316 µM, first compound 0.03 µM
[16] = second compound 0.316 µM, first compound 0.0949 µM
[17] = second compound 0.316 µM, first compound 0.3 µM
[18] = second compound 1 µM, first compound 0.000949 µM
[19] = second compound 1 µM, first compound 0.003 µM
[20] = second compound 1 µM, first compound 0.00949 µM
[21] = second compound 1 µM, first compound 0.03 µM
[22] = second compound 1 µM, first compound 0.0949 µM
[23] = second compound 1 µM, first compound 0.3 µM
[24] = second compound 3.16 µM, first compound 0.000949 µM
[25] = second compound 3.16 µM, first compound 0.003 µM
[26] = second compound 3.16 µM, first compound 0.00949 µM
[27] = second compound 3.16 µM, first compound 0.03 µM
[28] = second compound 3.16 µM, first compound 0.0949 µM
[29] = second compound 3.16 µM, first compound 0.3 µM
[30] = second compound 10 µM, first compound 0.000949 µM
[31] = second compound 10 µM, first compound 0.003 µM
[32] = second compound 10 µM, first compound 0.00949 µM
[33] = second compound 10 µM, first compound 0.03 µM
[34] = second compound 10 µM, first compound 0.0949 µM
[35] = second compound 10 µM, first compound 0.3 µM
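Further: spheroids exposed to compounds for seven days before the viability read.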
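Wherever viability, T/C is given: luminescent signal used as a stand-in for viable cell amount; 100% = DMSO vehicle control wells.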

SMILES: CCc1c2c(nc3ccc(O)cc13)-c1cc3c(c(=O)n1C2)COC(=O)[C@]3(O)CC + Cc1ccccc1N=Nc1ccc(NC(=O)c2ccnn2C)c(C)c1
- pIC50 [1]: 7.13
- pIC50 [2]: 7.18
- pIC50 [3]: 7.18
- pIC50 [4]: 7.22
- pIC50 [5]: 7.21
- viability, T/C [6]: 119%
- viability, T/C [7]: 143%
- viability, T/C [8]: 114%
- viability, T/C [9]: 81.7%
- viability, T/C [10]: 42.6%
- viability, T/C [11]: 25.4%
- viability, T/C [12]: 114%
- viability, T/C [13]: 145%
- viability, T/C [14]: 123%
- viability, T/C [15]: 78%
- viability, T/C [16]: 40.5%
- viability, T/C [17]: 27%
- viability, T/C [18]: 128%
- viability, T/C [19]: 157%
- viability, T/C [20]: 123%
- viability, T/C [21]: 80.5%
- viability, T/C [22]: 37.9%
- viability, T/C [23]: 24.2%
- viability, T/C [24]: 125%
- viability, T/C [25]: 138%
- viability, T/C [26]: 119%
- viability, T/C [27]: 77%
- viability, T/C [28]: 33.6%
- viability, T/C [29]: 21.1%
- viability, T/C [30]: 106%
- viability, T/C [31]: 114%
- viability, T/C [32]: 106%
- viability, T/C [33]: 76.6%
- viability, T/C [34]: 34.2%
- viability, T/C [35]: 21.9%

SMILES: CC(C)CC(NC(=O)C(Cc1ccccc1)NC(=O)c1cnccn1)B(O)O (configuration not stated) + Cc1ccccc1N=Nc1ccc(NC(=O)c2ccnn2C)c(C)c1
- pIC50 [1]: 7.75
- pIC50 [2]: 7.77
- pIC50 [3]: 7.79
- pIC50 [4]: 7.80
- pIC50 [5]: 7.78
- viability, T/C [6]: 101%
- viability, T/C [7]: 108%
- viability, T/C [8]: 109%
- viability, T/C [9]: 2.71%
- viability, T/C [10]: 1.36%
- viability, T/C [11]: 0.12%
- viability, T/C [12]: 104%
- viability, T/C [13]: 118%
- viability, T/C [14]: 97.3%
- viability, T/C [15]: 1.86%
- viability, T/C [16]: 0.39%
- viability, T/C [17]: 0.12%
- viability, T/C [18]: 99.8%
- viability, T/C [19]: 98.2%
- viability, T/C [20]: 91.5%
- viability, T/C [21]: 1.95%
- viability, T/C [22]: 1.08%
- viability, T/C [23]: 0.12%
- viability, T/C [24]: 104%
- viability, T/C [25]: 95.4%
- viability, T/C [26]: 89.1%
- viability, T/C [27]: 1.92%
- viability, T/C [28]: 0.77%
- viability, T/C [29]: 0.14%
- viability, T/C [30]: 96%
- viability, T/C [31]: 90.1%
- viability, T/C [32]: 98.6%
- viability, T/C [33]: 3.12%
- viability, T/C [34]: 0.43%
- viability, T/C [35]: 0.21%

SMILES: Cn1ncnc1C1c2n[nH]c(=O)c3cc(F)cc(c23)NC1c1ccc(F)cc1 (configuration not stated) + CC(CO)NC(=O)c1cc(-c2ccc(Cl)cc2)nn(-c2cnn(C)c2)c1=O
- pIC50 [1]: < 7.00
- pIC50 [2]: < 7.00
- pIC50 [3]: < 7.00
- pIC50 [4]: < 7.00
- pIC50 [5]: < 7.00
- viability, T/C (second compound 0.1 µM, first compound 0.000316 µM): 103%
- viability, T/C (second compound 0.1 µM, first compound 0.001 µM): 99.3%
- viability, T/C (second compound 0.1 µM, first compound 0.00316 µM): 102%
- viability, T/C (second compound 0.1 µM, first compound 0.01 µM): 93.5%
- viability, T/C (second compound 0.1 µM, first compound 0.0316 µM): 89.4%
- viability, T/C (second compound 0.1 µM, first compound 0.1 µM): 63.8%
- viability, T/C (second compound 0.316 µM, first compound 0.000316 µM): 111%
- viability, T/C (second compound 0.316 µM, first compound 0.001 µM): 106%
- viability, T/C (second compound 0.316 µM, first compound 0.00316 µM): 93.1%
- viability, T/C (second compound 0.316 µM, first compound 0.01 µM): 96.9%
- viability, T/C (second compound 0.316 µM, first compound 0.0316 µM): 83%
- viability, T/C (second compound 0.316 µM, first compound 0.1 µM): 64.5%
- viability, T/C (second compound 1 µM, first compound 0.000316 µM): 102%
- viability, T/C (second compound 1 µM, first compound 0.001 µM): 108%
- viability, T/C (second compound 1 µM, first compound 0.00316 µM): 118%
- viability, T/C (second compound 1 µM, first compound 0.01 µM): 94.6%
- viability, T/C (second compound 1 µM, first compound 0.0316 µM): 79.4%
- viability, T/C (second compound 1 µM, first compound 0.1 µM): 69.3%
- viability, T/C (second compound 3.16 µM, first compound 0.000316 µM): 92.7%
- viability, T/C (second compound 3.16 µM, first compound 0.001 µM): 109%
- viability, T/C (second compound 3.16 µM, first compound 0.00316 µM): 94.7%
- viability, T/C (second compound 3.16 µM, first compound 0.01 µM): 86.4%
- viability, T/C (second compound 3.16 µM, first compound 0.0316 µM): 76.5%
- viability, T/C (second compound 3.16 µM, first compound 0.1 µM): 67.7%
- viability, T/C (second compound 10 µM, first compound 0.000316 µM): 87%
- viability, T/C (second compound 10 µM, first compound 0.001 µM): 98.1%
- viability, T/C (second compound 10 µM, first compound 0.00316 µM): 84.5%
- viability, T/C (second compound 10 µM, first compound 0.01 µM): 72.3%
- viability, T/C (second compound 10 µM, first compound 0.0316 µM): 61.9%
- viability, T/C (second compound 10 µM, first compound 0.1 µM): 56%

SMILES: CCN(c1cc(-c2ccc(CN3CCOCC3)cc2)cc(C(=O)NCc2c(C)cc(C)[nH]c2=O)c1C)C1CCOCC1
- viability, T/C (compound 0.00949 µM): 107% and 112% and 86.8%
- viability, T/C (compound 0.03 µM): 99.7% and 104% and 85%
- viability, T/C (compound 0.0949 µM): 95.2% and 112% and 74.4%
- viability, T/C (compound 0.3 µM): 98.2% and 109% and 93.8%
- viability, T/C (compound 0.949 µM): 101% and 112% and 91.5%
- viability, T/C (compound 3 µM): 106% and 104% and 89.5%
- pIC50 (curve of compound): < 5.52
